Test results: US5021439A, “Cerebral function ameliorating agents related to Tan-950 A” (priority 1988, dated 1991)
Where two headings read alike, the source gives them in different places.

Tests used:
NMDA-type receptor = assay: Binding assay of NMDA-type receptor (3H-CPP) on rat forebrain crude synaptic membrane; conditions: 10 nM 3H-CPP, pH 7.1, 0° C., 15 min; read-out: Affinity to NMDA-type receptor (3H-CPP), IC50
Excerpt: (§1) The receptors of the exitatory amino acid (especially, glutamate) are classified into NMDA type, Quisqualate type and Kainate type. 3H-CPP [3-(2-carboxypiperazin-4-yl)propyl-1-[…]] as the ligand (a radio active substance which has high affinity for the receptor) for the NMDA-type-receptor, ^3 H-AMPA (DL-α-amino-3-hydroxy-5-methylisoxazole-4-propionic acid) as the ligand for the quisqualate-type-receptor, and ^3 H-kainic acid as the ligand for the kainate-type-receptor were used respectively. A sample of the crude synaptic membrane prepared from the forebrain of rat was washed 4 times by Tris hydrochloric acid buffer (pH 7.1) and kept in a freezing condition at -20° C. until its use.
(§2) Samples of the frozen crude synaptic membrane were melted and, after floating on 50 mM Tris hydrochloric acid buffer (pH 7.1), incubated for 30 minutes at 37° C. After the incubation, the synaptic membrane was centrifuged (48,000×g) and washed 3 times with 50 mM Tris hydrochloric acid buffer and used in the test.
(§3) In the binding assay of the NMDA-type-receptor, samples of the synaptic membrane were incubated in the presence or absence of a test compound together with 10 nM ^3 H-CPP in 50 mM Tris hydrochloric acid buffer (pH 7.1, 0° C.) for 15 minutes. The sediment (pellet) containing synapse membrane which was recovered by centrifugation of the incubation solution was rinsed with 50 mM Tris hydrochloric acid buffer (pH 7.1) and dissolved in 0.5 ml of Protosol® (made by New England Nuclear Inc.). In the binding assay of Quisqualate-type-receptor and Kainate-type-receptor, samples of the synapse was incubated in the presence or absence of a test compound in 5 nM ^3 H-AMPA (Quisqualate-type-receptor) or 2 nM ^3 H-Kainic acid (Kainate-type-receptor) together with 50 mM Tris hydrochloric acid buffer (pH 7.1, 0° C.) for 90 minutes. The solution was filtered with Whatman GF/B filter (Whatman®, made by Whatman Inc.) under reduced pressure and the filter was washed 3 times with 50 mM Tris hydrochloric acid buffer. The radioactivity on the filter was measured by a conventional method. The specific binding amount was determined by subtracting the non-specific binding from the total binding, taking the binding in the presence of an excessive non-radioactive L-sodium glutamate (1 mM) as the amount of the non-specfic binding, i.e., the binding to anything other than the receptor. The 50% inhibiting concentration (IC50) of the compound to be tested was determined as the concentration which inhibits 50% of the specific receptor binding of ^3 H-CPP, ^3 H-AMPA or ^3 H-kainic acid.

[1] = target: Quisqualate-type receptor; assay: Binding assay of Quisqualate-type receptor (3H-AMPA) on rat forebrain crude synaptic membrane
Excerpt: as §1, §2
as §3, with “receptor.” for “receptor. The 50% inhibiting concentration (IC50) of the compound to be tested was determined as the concentration which inhibits 50% of the specific receptor binding of ^3 H-CPP, ^3 H-AMPA or ^3 H-kainic acid.”

Kainate-type receptor = assay: Binding assay of Kainate-type receptor (3H-kainic acid) on rat forebrain crude synaptic membrane
Excerpt: as §1, §2
as §3, with “receptor.” for “receptor. The 50% inhibiting concentration (IC50) of the compound to be tested was determined as the concentration which inhibits 50% of the specific receptor binding of ^3 H-CPP, ^3 H-AMPA or ^3 H-kainic acid.”

[2] = test system: glutamate receptor (NMDA type, Quisqualate type and Kainate type); assay: Affinity for the glutamate receptors of the brain, 3 sub-types taken together; assay type: binding, rat; conditions: summary of Table 5
Excerpt: as §1, §2, §3

[3] = test system: neurons of rat hippocampus; assay: Excitatory action on neurons of rat hippocampus in vitro (CA1 spike recording in slices); assay type: cell-based; conditions: rat hippocampal slices, CA1 pyramidal cell layer, Krebs-Ringer solution 33° C., read-out: Minimum effective concentration to induce firing of hippocampus nervous cell
Description: Male Wister rats (body weight: 300 -350 g) were used in the test. After cutting the head of rats, the brain was quickly taken out and […] thickness of the sliced samples of a hippocampus was prepared by a slice cutter. These samples were incubated in a nutrient solution (Krebs-Ringer solution, 33° C.) saturated with a mixed gas of 95% of oxygen gas and 5% of carbon dioxide gas for one or more hours. The test was carried out in the perfusion cisterna with perfusing at the flow speed of 1.5 ml/min. The action potential (spike) in CA1 pyramidal cell layer of the hippocampus was recorded extracellularlly by using a glass electrode filled with 2M NaCl solution. The test compounds were added to the perfusate and the change in number of the spikes with passage of time was counted by a pulse counter and recorded on the recorder. The Krebs-Ringer's solution contains 124 mM of NaCl, 5 mM of KCl, 1.24 mM of KH2 PO4, 1.3 mM of MgSO4, 2.4 mM of CaCL2, 26 mM of […] and 10 mM of glucose.

Acute toxicity in mouse = conditions: in vivo, any administration routes (iv, ip, sc, po)
[4] = Conversion of each component of TAN-950 in aqueous solution (HPLC); assay type: physicochemical; conditions: 60° C.
Description: The mixture of TAN-950A - E was applied to HPLC in order to isolate each component thereof and each component was isolated as approximately single peak compound.

Solubility = assay type: physicochemical
[5] = starting material heated in aqueous solution, 1 hour

Compound: N[C@@H](Cc1c[nH]oc1=O)C(=O)O [Compound 1, TAN-950A]
- IC50 (NMDA-type receptor): 19 µM
- IC50 ([1]; 5 nM 3H-AMPA, pH 7.1, 0° C., 90 min, read-out: Affinity to Quisqulate-type receptor (3H-AMPA), IC50): 0.28 µM
- Affinity to the Quisqualate-type-receptor (in words) ([1]; summary of Table 5): strong affinity
- Affinity to Kainate-type receptor (3H-KA), IC50 (Kainate-type receptor; 2 nM 3H-Kainic acid, pH 7.1, 0° C., 90 min): 3.6 µM
- Affinity to the Kainate-type-receptor (in words) (Kainate-type receptor; summary of Table 5): strong affinity
- Affinity to the 3 sub-type receptors (in words) [2]: high affinities to the 3 sub-type receptors
- minimal effective concentration ([3]; Rattus norvegicus, Neuron): ≥ 300 µM
- minimal effective concentration ([3]; listed as 1 (sodium salt)): 300 µM
- LD50 (Acute toxicity in mouse): > 4000 mg/kg
- Conversion in aqueous solution (in words) ([4]; aqueous solution): converted mainly to TAN-950B and D, but slightly to TAN-950C and E
- TAN-950A in resulting substance, area percentage by HPLC [4, 5]: 63.8%
- TAN-950B in resulting substance, area percentage by HPLC [4, 5]: 13.0%
- TAN-950C in resulting substance, area percentage by HPLC [4, 5]: 5.7%
- TAN-950D in resulting substance, area percentage by HPLC [4, 5]: 12.1%
- TAN-950E in resulting substance, area percentage by HPLC [4, 5]: 3.1%
- Solubility in acetone (Solubility; acetone): Sparingly soluble
- Solubility in chloroform (Solubility; chloroform): Sparingly soluble
- Solubility in dimethylsulfoxide (Solubility; dimethylsulfoxide): Soluble
- Solubility in ethyl acetate (Solubility; ethyl acetate): Sparingly soluble
- Solubility in methanol (Solubility; methanol): Soluble
- Solubility in water (Solubility; water): Soluble
